The record followed here is publication PMC6106730, “The hemicellulose-degrading enzyme system of the thermophilic bacterium Clostridium stercorarium: comparative characterisation and addition of new hemicellulolytic glycoside hydrolases” (Biotechnology for Biofuels, 2018).

One assay addresses T1, Xyn10D (Thermoclostridium stercorarium, UniProt L7VM99).
T1 construct: gene Cst_c07550; no signal peptide predicted; C-terminal His6 tag, pET-24c(+), E. coli BL21 Star; IMAC and heat step
As to the kind of experiment: HPAEC-PAD of hydrolysis products. The note with it: 20 mg/L oligosaccharide, 2 mg/L enzyme, overnight, 60 °C, pH 6.5. The assay is classed as biochemical.

The target in a further assay is T2, Xyn105F (Thermoclostridium stercorarium, UniProt L7VMZ8).
T2 construct: gene Cst_c10410; no signal peptide predicted; C-terminal His6 tag, pET-24c(+), E. coli BL21 Star; IMAC and heat step
As to the kind of experiment: HPAEC-PAD of hydrolysis products. The settings on record: 20 mg/L oligosaccharide, 2 mg/L enzyme, overnight, 60 °C, pH 6.5. It is filed as biochemical.

T1 sequence (L7VM99 entry or part of it): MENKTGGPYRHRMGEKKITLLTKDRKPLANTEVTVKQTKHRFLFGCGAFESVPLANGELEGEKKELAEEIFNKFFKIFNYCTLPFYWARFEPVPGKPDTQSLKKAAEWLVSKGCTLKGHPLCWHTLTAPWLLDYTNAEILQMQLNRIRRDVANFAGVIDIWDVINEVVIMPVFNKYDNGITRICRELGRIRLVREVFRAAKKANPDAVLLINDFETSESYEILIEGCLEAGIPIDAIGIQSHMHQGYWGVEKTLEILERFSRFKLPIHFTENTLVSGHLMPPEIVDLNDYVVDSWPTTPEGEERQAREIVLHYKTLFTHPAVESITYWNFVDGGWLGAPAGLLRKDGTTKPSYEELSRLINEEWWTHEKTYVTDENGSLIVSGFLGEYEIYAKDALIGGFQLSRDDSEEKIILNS
T2 sequence (L7VMZ8 entry or part of it): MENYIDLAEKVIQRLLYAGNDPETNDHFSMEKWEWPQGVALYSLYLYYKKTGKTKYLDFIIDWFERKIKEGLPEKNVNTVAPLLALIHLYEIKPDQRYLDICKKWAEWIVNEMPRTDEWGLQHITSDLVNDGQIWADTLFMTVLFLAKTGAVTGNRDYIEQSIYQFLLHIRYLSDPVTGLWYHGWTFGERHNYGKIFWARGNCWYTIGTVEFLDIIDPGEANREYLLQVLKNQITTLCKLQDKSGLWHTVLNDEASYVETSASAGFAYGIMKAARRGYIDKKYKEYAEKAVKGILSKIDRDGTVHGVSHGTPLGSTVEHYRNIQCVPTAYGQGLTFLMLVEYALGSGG

`OC1OC[C@@H](O[C@@H]2OC[C@@H](O[C@@H]3OC[C@@H](O[C@@H]4OC[C@@H](O[C@@H]5OC[C@@H](O)[C@H](O)[C@H]5O)[C@H](O)[C@H]4O)[C@H](O)[C@H]3O)[C@H](O)[C@H]2O)[C@H](O)[C@H]1O` (some centres unmarked) [X5, xylopentaose]: the “HPAEC-PAD of hydrolysis products” value was “All five xylanases degraded xylopentaose first to xylotriose and xylobiose” on Xyn10D; “Xyn105F was also active on xylopentaose, releasing xylose and xylobiose” at Xyn105F.
